Molecules are shown by their SMILES.

Data set [1] in a line: Core body temperature by radiotelemetry after i.c.v. administration. The format is in vivo, mouse. As to conditions: 306 nmol per 1 μL i.c.v. The procedure:
A second set of male C57Bl6J mice (Jackson Laboratories, n = 8) was implanted with telemetry as described above and a 26-gauge brain cannula (Plastics One) targeted at the lateral ventricle using coordinates relative to Bregma: 0.3 mm caudal, 1.0 mm lateral, 3.0 mm ventral. This second procedure was also performed under isoflurane anesthesia. The brain cannula was secured to the skull with two screws and dental cement. Animals were treated with buprenex (0.05 mg·kg^−1, s.c. every 8 h for 48 h) and enrofloxacin (2 mg·kg^−1, s.c.), singly housed and handled daily as described above. A single i.c.v. injection was performed every other day in a randomized order and included: (1) Galanin-like peptide (3 nmol/1 μL), (2) VBJ103 (306 nmol/1 μL) and (3) VBJ103 vehicle (1 μL). Galanin-like peptide produced a decrease in body temperature in five of eight mice. Therefore, body temperature data in response to VBJ103 and vehicle are presented in these five mice. These studies were carried out with a single dose of VBJ103 (306 nmol/1 μL or ~4 mg·kg^−1), which was the highest dose achievable due to constraints of the injection volume and the solubility of VBJ103.

For the next data set, the system named is oxaliplatin-treated mice. Briefly: Oxaliplatin-induced cold hyperalgesia, cold-plantar test. The format is in vivo, mouse. As to conditions: for reversal of cold hypersensitivity (withdrawal latency) / increase in latency (AUC) compared to baseline: oxaliplatin group; for influence on oxaliplatin-induced cold hypersensitivity: 30 mg·kg−1 alone. The procedure:
Male and female C57 BL/6J mice from Taconic Labs were randomized by sex and cage to oxaliplatin or vehicle groups. Mice were weighed and injected intraperitoneally (i.p.) with either oxaliplatin (3 mg·kg^−1), or vehicle (5% dextrose) once per day every day for five consecutive days, followed by five days off, and then by a second round of once per day for five more days. Therefore, mice received a total of 10 injections for a total of 30 mg·kg^−1. The average weight of the females was 18 g while of the males was 20 g. Consequently, the females received an average of 540 and the males 600 μg in total. Behavioural testing was started after the second round of oxaliplatin/vehicle administration. The cold-plantar test was used to assess changes in cold sensitivity. A 3 ml syringe barrel filled with powdered dry ice was used as the stimulus. The dry ice is placed on the glass (borosilicate glass; thickness, 1/8 in. (3.17 mm); temperature, 75°F (24°C), measured with a calibrated IR temperature probe) beneath the hindpaw and the latency to withdraw was determined ([Yilmaz et al., 2017]). The baseline withdrawal latency was determined from the mean of three stimulus applications (at an inter-stimulus interval of ~5 min), while that at each time interval after the administration of a test agent was again the mean of three stimulus applications bracketing the time point in question (i.e., 5 min before, at the time point, and 5 min after). Mice in the two groups defined by oxaliplatin treatment were subsequently randomized to the order of treatment (with the TRPM8 antagonist VBJ103, or vehicle control). VBJ103 and vehicle solutions were administered subcutaneously (s.c.) at doses of 3, 10 and 30 mg·kg^−1. Mice were tested every other day over 7 days so that each mouse received all four injections (vehicle and three doses of VBJ103). In a second cohort of male (n = 8) and female (n = 8) mice, all mice were treated with oxaliplatin as described above, and then randomized to the order of treatment with vehicle, VBJ103 (30 mg·kg^−1) alone, the TRPA1 antagonist, HC-030031 (200 mg·kg^−1) alone, or the combination of VBJ103 (30 mg·kg^−1) and HC-030031 (200 mg·kg^−1). A third cohort of male (n = 7) and female (n = 8) mice was also treated with oxaliplatin as described above. […] All test agents in both follow-up cohorts were again administered in a volume of 5 ml·kg^−1. Mice in both follow-up cohorts were again tested every other day over a period of 6 days. Finally, a fourth cohort of male (n = 4) and female (n = 4) mice was used to confirm that 200 mg·kg^−1 HC-030031 was sufficient to block TRPA1. For this experiment, mice were randomized to the order of treatment with vehicle or HC-030031 ([…]).

As for `O=C(NC1CCC2(CCCC2)CC1)c1ccc(-c2ccccc2)cc1` [VBJ103, N-(Spiro[4.5]decan-8-yl)-[1,1′-biphenyl]-4-carboxamide], the “change in CBT compared to vehicle” value in data set [1] is “did not significantly (P > 0.05) alter”. Besides, the “reversal of cold hypersensitivity (withdrawal latency)” value with oxaliplatin-treated mice (3 mg·kg−1 s.c., at 2 h) is “significant reversals in hypersensitivity”; in the data set on oxaliplatin-treated mice (10 mg·kg−1 s.c., at 1 and 2 h), “significant reversals in hypersensitivity”; with oxaliplatin-treated mice (30 mg·kg−1 s.c., at 0.5, 1 and 2 h) it was “significant reversals in hypersensitivity”. The “increase in latency (AUC) compared to baseline” value in the data set on oxaliplatin-treated mice (10 mg·kg−1 s.c.) and in the data set with oxaliplatin-treated mice (30 mg·kg−1 s.c.) was “significant” in each case. Also, the “influence on oxaliplatin-induced cold hypersensitivity” value in the data set on oxaliplatin-treated mice (second cohort, vehicle 0.5% Methocel) is “significantly attenuated oxaliplatin-induced cold hypersensitivity at all time points tested”; with oxaliplatin-treated mice (third cohort, vehicle 1:1 DMSO:water), “significantly reversed”. Moreover, the “influence on withdrawal latency to noxious cold stimuli” value in the data set on oxaliplatin-treated mice (VBJ103 30 mg·kg−1 in combination with GBR12909 20 mg·kg−1, third cohort) is recorded as “no detectable influence of GBR12909 on the withdrawal latency”; in the data set on oxaliplatin-treated mice (VBJ103 30 mg·kg−1 in combination with HC-030031 200 mg·kg−1, second cohort), “not detectably different from the influence of VBJ103 alone”. In addition, in the data set on oxaliplatin-treated mice (mice not treated with oxaliplatin, 3 to 30 mg·kg−1 s.c.), the “baseline responses to noxious cold compared to vehicle” value was “not altered”.
